Assay results reported in ChEMBL document CHEMBL5653615 (J Biol Chem, 2013).

Tests used:
[1] = target: T1, Tyrosine-protein kinase TXK (Homo sapiens) (UniProt P42681); test: Inhibition of human TXK at 500 nM by HotSpot assay relative to control
T1 sequence (whole entry): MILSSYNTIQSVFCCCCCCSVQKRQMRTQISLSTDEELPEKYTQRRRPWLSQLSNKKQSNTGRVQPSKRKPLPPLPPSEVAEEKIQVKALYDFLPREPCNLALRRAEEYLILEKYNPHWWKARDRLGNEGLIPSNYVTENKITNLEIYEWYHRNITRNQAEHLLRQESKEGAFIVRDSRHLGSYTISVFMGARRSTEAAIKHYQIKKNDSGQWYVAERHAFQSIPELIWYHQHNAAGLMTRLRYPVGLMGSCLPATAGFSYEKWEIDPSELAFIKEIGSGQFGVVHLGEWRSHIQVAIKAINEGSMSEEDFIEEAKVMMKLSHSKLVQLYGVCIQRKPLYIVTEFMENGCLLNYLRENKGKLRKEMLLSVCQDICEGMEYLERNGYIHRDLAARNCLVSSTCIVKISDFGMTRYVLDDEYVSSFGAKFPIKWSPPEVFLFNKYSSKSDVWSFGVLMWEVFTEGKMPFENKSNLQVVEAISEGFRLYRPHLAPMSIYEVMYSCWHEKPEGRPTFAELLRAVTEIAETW

[2] = target: T2, Activin receptor type-1 (Homo sapiens) (UniProt Q04771); test: Inhibition of human ALK2 at 500 nM by HotSpot assay relative to control
T2 sequence (whole entry): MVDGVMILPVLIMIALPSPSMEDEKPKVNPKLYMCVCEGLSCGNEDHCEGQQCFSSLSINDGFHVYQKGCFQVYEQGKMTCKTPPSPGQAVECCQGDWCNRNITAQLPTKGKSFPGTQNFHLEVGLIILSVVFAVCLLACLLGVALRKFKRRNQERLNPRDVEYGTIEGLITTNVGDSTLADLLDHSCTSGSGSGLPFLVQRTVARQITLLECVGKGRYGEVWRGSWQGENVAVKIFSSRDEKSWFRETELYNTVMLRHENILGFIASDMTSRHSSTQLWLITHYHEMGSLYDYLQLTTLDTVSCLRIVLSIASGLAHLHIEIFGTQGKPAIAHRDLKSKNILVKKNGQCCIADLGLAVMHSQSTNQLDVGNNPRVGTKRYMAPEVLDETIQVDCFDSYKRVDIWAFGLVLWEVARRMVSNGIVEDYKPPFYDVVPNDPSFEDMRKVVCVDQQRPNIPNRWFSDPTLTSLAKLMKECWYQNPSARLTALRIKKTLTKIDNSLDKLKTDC

[3] = target: T3, Serine/threonine-protein kinase STK11 (Homo sapiens) (UniProt Q15831); test: Inhibition of human LKB1 at 500 nM by HotSpot assay relative to control
T3 sequence (whole entry): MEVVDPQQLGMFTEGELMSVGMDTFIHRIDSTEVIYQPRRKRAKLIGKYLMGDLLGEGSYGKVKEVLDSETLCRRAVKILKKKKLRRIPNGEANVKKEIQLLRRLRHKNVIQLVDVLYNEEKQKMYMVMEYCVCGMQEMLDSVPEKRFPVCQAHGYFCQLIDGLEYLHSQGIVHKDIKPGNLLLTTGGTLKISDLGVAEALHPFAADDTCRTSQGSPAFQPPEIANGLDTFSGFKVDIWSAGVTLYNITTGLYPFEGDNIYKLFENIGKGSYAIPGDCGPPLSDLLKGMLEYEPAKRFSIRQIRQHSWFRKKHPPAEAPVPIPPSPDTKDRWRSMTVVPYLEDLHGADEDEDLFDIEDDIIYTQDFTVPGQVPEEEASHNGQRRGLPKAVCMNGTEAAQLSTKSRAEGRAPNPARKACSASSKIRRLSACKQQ

[4] = target: T4, Aurora kinase C (Homo sapiens) (UniProt Q9UQB9); test: Inhibition of human Aurora C at 500 nM by HotSpot assay relative to control
T4 sequence (whole entry): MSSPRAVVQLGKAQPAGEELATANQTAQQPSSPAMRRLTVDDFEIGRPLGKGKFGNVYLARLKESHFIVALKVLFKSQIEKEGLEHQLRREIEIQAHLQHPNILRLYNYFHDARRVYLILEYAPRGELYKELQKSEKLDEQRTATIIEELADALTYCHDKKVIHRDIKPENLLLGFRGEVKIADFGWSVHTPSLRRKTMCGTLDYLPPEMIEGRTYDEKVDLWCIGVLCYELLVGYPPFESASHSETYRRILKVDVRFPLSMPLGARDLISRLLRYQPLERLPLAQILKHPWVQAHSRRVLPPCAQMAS

[5] = target: CDK1/Cyclin A (Homo sapiens) (UniProt P06493+P20248); test: Inhibition of human CDK1/cyclin A at 500 nM by HotSpot assay relative to control; format: protein-complex assay
[6] = target: Ephrin type-A receptor 4 (Homo sapiens) (UniProt P54764); test: Inhibition of human EPHA4 at 500 nM by HotSpot assay relative to control
[7] = target: Mitogen-activated protein kinase kinase kinase 11 (Homo sapiens) (UniProt Q16584); test: Inhibition of human MAP3K11 at 500 nM by HotSpot assay relative to control
[8] = target: T5, Discoidin domain-containing receptor 2 (Homo sapiens) (UniProt Q16832); test: Inhibition of human DDR2 at 500 nM by HotSpot assay relative to control
T5 sequence (whole entry): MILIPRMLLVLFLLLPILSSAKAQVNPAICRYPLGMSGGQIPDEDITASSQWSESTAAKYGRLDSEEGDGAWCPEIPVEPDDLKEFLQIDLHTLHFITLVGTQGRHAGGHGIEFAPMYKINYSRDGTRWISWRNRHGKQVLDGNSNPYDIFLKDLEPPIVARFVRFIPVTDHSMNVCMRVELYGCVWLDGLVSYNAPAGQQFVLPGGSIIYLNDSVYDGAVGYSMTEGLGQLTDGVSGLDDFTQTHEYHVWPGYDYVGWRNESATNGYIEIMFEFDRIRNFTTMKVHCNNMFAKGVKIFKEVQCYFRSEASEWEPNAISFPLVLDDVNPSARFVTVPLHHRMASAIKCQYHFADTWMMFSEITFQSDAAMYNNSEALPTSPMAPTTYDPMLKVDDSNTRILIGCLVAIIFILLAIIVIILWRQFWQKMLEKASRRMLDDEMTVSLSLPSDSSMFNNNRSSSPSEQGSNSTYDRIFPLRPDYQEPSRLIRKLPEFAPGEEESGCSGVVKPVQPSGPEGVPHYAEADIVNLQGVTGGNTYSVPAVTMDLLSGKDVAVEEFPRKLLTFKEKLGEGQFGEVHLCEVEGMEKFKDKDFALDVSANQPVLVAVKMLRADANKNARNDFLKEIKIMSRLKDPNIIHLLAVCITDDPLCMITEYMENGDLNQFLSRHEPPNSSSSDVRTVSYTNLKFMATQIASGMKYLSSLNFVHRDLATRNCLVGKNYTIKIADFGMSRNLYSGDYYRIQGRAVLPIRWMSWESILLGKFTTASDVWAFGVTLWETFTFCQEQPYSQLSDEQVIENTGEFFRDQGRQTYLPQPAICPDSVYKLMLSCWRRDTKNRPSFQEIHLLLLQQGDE

Sequence of Ephrin type-A receptor 4 (Homo sapiens) (P54764 whole entry): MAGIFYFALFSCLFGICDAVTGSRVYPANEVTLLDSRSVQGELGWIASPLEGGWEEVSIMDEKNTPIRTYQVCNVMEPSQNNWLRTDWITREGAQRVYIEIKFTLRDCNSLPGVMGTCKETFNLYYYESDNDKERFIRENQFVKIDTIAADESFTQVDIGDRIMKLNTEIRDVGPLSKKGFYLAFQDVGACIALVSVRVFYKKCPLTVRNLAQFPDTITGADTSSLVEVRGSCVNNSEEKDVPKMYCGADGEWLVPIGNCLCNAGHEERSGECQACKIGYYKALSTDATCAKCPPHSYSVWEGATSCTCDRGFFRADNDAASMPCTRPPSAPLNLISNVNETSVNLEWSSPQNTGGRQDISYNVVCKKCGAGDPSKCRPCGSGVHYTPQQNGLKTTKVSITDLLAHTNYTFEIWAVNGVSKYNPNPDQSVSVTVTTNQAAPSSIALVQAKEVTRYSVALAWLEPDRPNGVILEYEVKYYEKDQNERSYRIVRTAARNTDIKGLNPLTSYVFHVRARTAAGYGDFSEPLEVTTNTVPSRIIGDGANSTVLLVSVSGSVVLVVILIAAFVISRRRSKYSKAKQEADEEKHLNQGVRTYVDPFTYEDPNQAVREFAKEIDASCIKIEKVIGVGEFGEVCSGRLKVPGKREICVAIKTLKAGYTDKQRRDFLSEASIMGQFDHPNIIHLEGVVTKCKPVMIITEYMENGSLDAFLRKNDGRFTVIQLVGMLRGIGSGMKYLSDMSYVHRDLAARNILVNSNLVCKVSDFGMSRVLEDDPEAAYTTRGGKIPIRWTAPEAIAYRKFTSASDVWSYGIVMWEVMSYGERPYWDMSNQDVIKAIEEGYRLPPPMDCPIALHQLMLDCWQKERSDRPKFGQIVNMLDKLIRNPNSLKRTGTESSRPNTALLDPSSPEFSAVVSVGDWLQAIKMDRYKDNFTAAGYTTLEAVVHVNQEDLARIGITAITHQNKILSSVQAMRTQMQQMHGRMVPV
Sequence of Mitogen-activated protein kinase kinase kinase 11 (Homo sapiens) (Q16584 whole entry, looked up, the tested form may be a part): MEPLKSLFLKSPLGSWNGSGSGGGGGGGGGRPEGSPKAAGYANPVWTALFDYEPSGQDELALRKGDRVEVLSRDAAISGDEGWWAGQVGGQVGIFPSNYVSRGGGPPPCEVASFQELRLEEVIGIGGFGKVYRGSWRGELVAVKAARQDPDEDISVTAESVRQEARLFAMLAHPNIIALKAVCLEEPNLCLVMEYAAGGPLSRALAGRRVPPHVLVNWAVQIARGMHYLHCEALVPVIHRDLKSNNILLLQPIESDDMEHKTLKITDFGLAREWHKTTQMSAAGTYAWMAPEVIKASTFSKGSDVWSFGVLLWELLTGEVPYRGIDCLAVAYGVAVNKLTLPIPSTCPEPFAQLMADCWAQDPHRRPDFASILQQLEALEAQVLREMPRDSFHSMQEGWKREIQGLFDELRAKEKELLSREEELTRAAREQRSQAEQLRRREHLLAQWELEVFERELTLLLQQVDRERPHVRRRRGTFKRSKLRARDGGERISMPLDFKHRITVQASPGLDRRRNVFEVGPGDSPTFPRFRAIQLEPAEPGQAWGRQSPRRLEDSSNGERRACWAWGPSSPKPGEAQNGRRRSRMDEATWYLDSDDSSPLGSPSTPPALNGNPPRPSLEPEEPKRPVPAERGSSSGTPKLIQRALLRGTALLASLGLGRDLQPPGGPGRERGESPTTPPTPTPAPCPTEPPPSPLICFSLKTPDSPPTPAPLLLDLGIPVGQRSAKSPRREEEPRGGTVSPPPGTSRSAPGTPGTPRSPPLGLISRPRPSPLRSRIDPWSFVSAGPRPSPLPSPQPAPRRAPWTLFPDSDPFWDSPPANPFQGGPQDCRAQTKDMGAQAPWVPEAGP
Sequence of CDK1/Cyclin A (Homo sapiens) (P06493 whole entry, looked up): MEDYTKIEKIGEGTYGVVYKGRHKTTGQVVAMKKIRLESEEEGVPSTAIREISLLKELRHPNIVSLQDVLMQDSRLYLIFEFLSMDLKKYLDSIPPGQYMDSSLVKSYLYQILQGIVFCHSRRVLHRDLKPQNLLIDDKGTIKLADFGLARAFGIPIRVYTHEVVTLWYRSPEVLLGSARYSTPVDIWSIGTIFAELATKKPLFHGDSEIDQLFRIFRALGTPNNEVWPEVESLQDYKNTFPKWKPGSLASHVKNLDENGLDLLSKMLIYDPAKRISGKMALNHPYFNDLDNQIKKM
Sequence of CDK1/Cyclin A (Homo sapiens) (P20248 whole entry, looked up): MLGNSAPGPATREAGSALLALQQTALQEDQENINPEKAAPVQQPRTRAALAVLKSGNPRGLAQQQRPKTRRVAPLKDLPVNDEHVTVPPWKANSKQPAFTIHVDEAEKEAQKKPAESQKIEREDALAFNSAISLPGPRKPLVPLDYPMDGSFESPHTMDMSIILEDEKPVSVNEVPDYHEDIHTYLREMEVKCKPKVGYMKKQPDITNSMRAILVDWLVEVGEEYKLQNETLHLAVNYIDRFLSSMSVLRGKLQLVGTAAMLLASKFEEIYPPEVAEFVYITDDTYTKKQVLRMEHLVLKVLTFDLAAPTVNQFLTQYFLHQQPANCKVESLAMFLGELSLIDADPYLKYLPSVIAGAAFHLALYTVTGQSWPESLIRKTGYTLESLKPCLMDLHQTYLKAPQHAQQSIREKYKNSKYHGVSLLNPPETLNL

| SMILES | inhibition [1] | inhibition [2] | inhibition [3] | inhibition [4] | inhibition [5] | inhibition [6] | inhibition [7] | inhibition [8] |
| --- | --- | --- | --- | --- | --- | --- | --- | --- |
| Nc1n[nH]c2nnc(-c3c(-c4ccccc4)nn4ccccc34)cc12 | 11.2% | -7.19% | 8.15% | 3.59% | -0.55% | 14.1% | 5.68% | -0.55% |
| Oc1n[nH]c2nnc(-c3c(-c4ccccc4)nn4ccccc34)cc12 | 2.55% | 0.23% | 7.3% | 2.04% | 0.95% | -8.13% | 2.87% | -2.78% |
